Results taken from patent US8455497B2, “Inhibitors of aspartyl protease” (Vertex Pharmaceuticals Incorporated, priority 1999, dated 2013).
pIC50: −log10 of the molar value.

Key:
HIV-1 (strain IIIB) = test: Antiviral activity assay in MT4 cells (propidium iodide based); format: cell-based; conditions: Human immunodeficiency virus 1, IIIB; wild type HIV-1 virus, MT4 cells; read-out: Wildtype virus - IC50
Outline: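 MT4 cells infected with HIV-1 IIIB (MOI 100×TCID50, 1 hr, 37°C), diluted 6-fold into wells with serially diluted compound, incubated 5 days. Cells lysed with Nonidet-40; DNA content per well estimated by propidium iodide staining as the viability read-out, with mock-infected controls.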

[1] = test system: D545701-14 multi protease inhibitor resistant virus; test: Anti-viral activity against resistant virus D545701-14 in MT4 cells; format: cell-based, HIV-1; conditions: Human immunodeficiency virus 1, MT4, read-out: D545701-14 mutant - IC50, D545701-14 multi protease inhibitor resistant virus, MT4 cells
[2] = test system: EP13 multi protease inhibitor resistant virus; test: Anti-viral activity against resistant virus EP13 in MT4 cells; format: cell-based, HIV-1; conditions: Human immunodeficiency virus 1, MT4, read-out: EP13 mutant IC50, EP13 multi protease inhibitor resistant virus, MT4 cells
Outline: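 MT4 cells infected for 1 h at 37 °C, MOI 100×TCID50, then diluted 6-fold onto pre-diluted compound and cultured 5 days (5% CO2). Viable-cell DNA content estimated by propidium iodide. EP13 carries protease mutations M46I, L63P, A71V, V82F/L, I84V, no RT mutations.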

SMILES	pIC50 (HIV-1 (strain IIIB))	pIC50 [1]	pIC50 [2]
CC(C)CN(C[C@@H](O)[C@H](Cc1ccc(OCC(N)=O)cc1)NC(=O)O[C@H]1CO[C@H]2OCC[C@H]21)S(=O)(=O)c1ccc2c(c1)OCO2 [Compound 314, (3R,3aS,6aR)-Hexahydrofuro[2,3-b]furan-3-yl (1S,2R)-1-[4-(2-amino-2-oxoethoxy)benzyl]-3-[(1,3-benzodioxol-5-ylsulfonyl)(isobutyl)amino]-2-hydroxypropylcarbamate]	7.00 to 8.00	7.00 to 8.00	7.00 to 8.00
CNC(=O)COc1ccc(C[C@H](NC(=O)O[C@H]2CO[C@H]3OCC[C@H]32)[C@H](O)CN(CC(C)C)S(=O)(=O)c2ccc3c(c2)OCO3)cc1 [Compound 315, (3R,3aS,6aR)-Hexahydrofuro[2,3-b]furan-3-yl (1S,2R)-3[(1,3-benzodioxol-5-ylsulfonyl)(isobutyl)amino]-2-hydroxy-1-{4-[2-(methylamino)-2-oxoethoxy]benzyl}propylcarbamate]	7.00 to 8.00	8.00 to 9.00	8.00 to 9.00
CC(C)CN(C[C@@H](O)[C@H](Cc1ccc(OCCCCO)cc1)NC(=O)O[C@H]1CO[C@H]2OCC[C@H]21)S(=O)(=O)c1ccc2c(c1)OCO2 [Compound 317, (3R,3aS,6aR)-Hexahydrofuro[2,3-b]furan-3-yl (1S,2R)-3-[(1,3-benzodioxol-5-ylsulfonyl)(isobutyl)amino]-2-hydroxy-1-[4-(4-hydroxybutoxy)benzyl]propylcarbamate]	8.00 to 9.00	8.00 to 9.00	8.00 to 9.00
CNC(=O)OCCCCOc1ccc(C[C@H](NC(=O)O[C@H]2CO[C@H]3OCC[C@H]32)[C@H](O)CN(CC(C)C)S(=O)(=O)c2ccc3c(c2)OCO3)cc1 [Compound 318, (3R,3aS,6aR)-Hexahydrofuro[2,3-b]furan-3-yl (1S,2R)-3-[(1,3-benzodioxol-5-ylsulfonyl)(isobutyl)amino]-2-hydroxy-1-[4-(4-{[(methylamino)carbonyl]oxy}butoxy)benzyl]propylcarbamate]	8.00 to 9.00	8.00 to 9.00	8.00 to 9.00
CC(C)CN(C[C@@H](O)[C@H](Cc1ccc(OCCCO)cc1)NC(=O)O[C@H]1CO[C@H]2OCC[C@H]21)S(=O)(=O)c1ccc2c(c1)OCO2 [Compound 319, (3R,3aS,6aR)-Hexahydrofuro[2,3-b]furan-3-yl (1S,2R)-3-[(1,3-benzodioxol-5-ylsulfonyl)(isobutyl)amino]-2-hydroxy-1-[4-(3-hydroxypropoxy)benzyl]propylcarbamate]	8.00 to 9.00	8.00 to 9.00	8.00 to 9.00
CNC(=O)OCCCOc1ccc(C[C@H](NC(=O)O[C@H]2CO[C@H]3OCC[C@H]32)[C@H](O)CN(CC(C)C)S(=O)(=O)c2ccc3c(c2)OCO3)cc1 [Compound 320, (3R,3aS,6aR)-Hexahydrofuro[2,3-b]furan-3-yl (1S,2R)-3[(1,3-benzodioxol-5-ylsulfonyl)(isobutyl)amino]-2-hydroxy-1-[4-(3-{[(methylamino)carbonyl]oxy}propoxy)benzyl]propylcarbamate]	8.00 to 9.00	8.00 to 9.00	8.00 to 9.00
CC(C)CN(C[C@@H](O)[C@H](Cc1ccc(OCCCOC(N)=O)cc1)NC(=O)O[C@H]1CO[C@H]2OCC[C@H]21)S(=O)(=O)c1ccc2c(c1)OCO2 [Compound 321, (3R,3aS,6aR)-Hexahydrofuro[2,3-b]furan-3-yl (1S,2R)-1-(4-{3-[(aminocarbonyl)oxy]propoxy}benzyl)-3-[(1,3-benzodioxol-5-ylsulfonyl)(isobutyl)amino]-2-hydroxypropylcarbamate]	8.00 to 9.00	8.00 to 9.00	8.00 to 9.00
CC(C)CN(C[C@@H](O)[C@H](Cc1ccc(OCCO)cc1)NC(=O)O[C@H]1CO[C@H]2OCC[C@H]21)S(=O)(=O)c1ccc2c(c1)OCO2 [Compound 322, (3R,3aS,6aR)-Hexahydrofuro[2,3-b]furan-3-yl (1S,2R)-3-[(1,3-benzodioxol-5-ylsulfonyl)(isobutyl)amino]-2-hydroxy-1-[4-(2-hydroxyethoxy)benzyl]propylcarbamate]	8.00 to 9.00	8.00 to 9.00	8.00 to 9.00
CNC(=O)OCCOc1ccc(C[C@H](NC(=O)O[C@H]2CO[C@H]3OCC[C@H]32)[C@H](O)CN(CC(C)C)S(=O)(=O)c2ccc3c(c2)OCO3)cc1 [Compound 323, (3R,3aS,6aR)-Hexahydrofuro[2,3-b]furan-3-yl (1S,2R)-3-[(1,3-benzodioxol-5-ylsulfonyl)(isobutyl)amino]-2-hydroxy-1-[4-(2-{[(methylamino)carbonyl]oxy}ethoxy)benzyl]propylcarbamate]	8.00 to 9.00	8.00 to 9.00	8.00 to 9.00
CC(C)CN(C[C@@H](O)[C@H](Cc1ccc(OCCN2CCSC2)cc1)NC(=O)O[C@H]1CO[C@H]2OCC[C@H]21)S(=O)(=O)c1ccc2c(c1)OCO2 [Compound 324, (3R,3aS,6aR)-Hexahydrofuro[2,3-b]furan-3-yl (1S,2R)-3-[(1,3-benzodioxol-5-ylsulfonyl)(isobutyl)amino]-2-hydroxy-1-{4-[2-(1,3-thiazolidin-3-yl)ethoxy]benzyl}propylcarbamate]	8.00 to 9.00	8.00 to 9.00	8.00 to 9.00
CCOC(=O)COc1ccc(C[C@H](NC(=O)O[C@H]2CO[C@H]3OCC[C@H]32)[C@H](O)CN(CC(C)C)S(=O)(=O)c2ccc3c(c2)OCO3)cc1 [Compound 326, Ethyl (4-{(2S,3R)-2-({[(3R,3aS,6aR)-hexahydrofuro[2,3-b]furan-3-yloxy]carbonyl}amino)-4-[(1,3-benzodioxol-5-ylsulfonyl)(isobutyl)amino]-3-hydroxybutyl}phenoxy) acetate]	8.00 to 9.00	7.00 to 8.00	7.00 to 8.00
CCC(CC)ON(C[C@@H](O)[C@H](Cc1ccc(OCc2ccccc2)cc1)NC(=O)O[C@H]1CO[C@H]2OCC[C@H]21)S(=O)(=O)c1ccc2c(c1)OCO2 [Compound 329, (3R,3aS,6aR)-Hexahydrofuro[2,3-b]furan-3-yl (1S,2R)-3-[(1,3-benzodioxol-5-ylsulfonyl)(1-ethylpropoxy)amino]-1-[4-(benzyloxy)benzyl]-2-hydroxypropylcarbamate]	8.00 to 9.00	7.00 to 8.00	7.00 to 8.00
CC(C)CN(C[C@@H](O)[C@H](Cc1ccc(OC(=N)N(C)C)cc1)NC(=O)O[C@H]1CO[C@H]2OCC[C@H]21)S(=O)(=O)c1ccc2c(c1)OCO2 [Compound 331, (3R,3aS,6aR)-Hexahydrofuro[2,3-b]furan-3-yl (1S,2R)-3-[(1,3-benzodioxol-5-ylsulfonyl)(isobutyl)amino]-1-{4-[(dimethylamino) (imino)methoxy]benzyl}-2-hydroxypropylcarbamate]	7.00 to 8.00	7.00 to 8.00	7.00 to 8.00
CC(C)CN(C[C@@H](O)[C@H](Cc1ccc(Oc2nc(F)c(F)c(F)c2F)cc1)NC(=O)O[C@H]1CO[C@H]2OCC[C@H]21)S(=O)(=O)c1ccc2c(c1)OCO2 [Compound 332, (3R,3aS,6aR)-hexahydrofuro[2,3-b]furan-3-yl (1S,2R)-3-[(1,3-benzodioxol-5-ylsulfonyl)(isobutyl)amino]-2-hydroxy-1-{4-[(3,4,5,6-tetrafluoro-2-pyridinyl)oxy]benzyl}propylcarbamate]	8.00 to 9.00	7.00 to 8.00	8.00 to 9.00
CC(C)CN(C[C@@H](O)[C@H](Cc1ccc(Oc2ccc([N+](=O)[O-])cn2)cc1)NC(=O)O[C@H]1CO[C@H]2OCC[C@H]21)S(=O)(=O)c1ccc2c(c1)OCO2 [Compound 333, (3R,3aS,6aR)-hexahydrofuro[2,3-b]furan-3-yl (1S,2R)-3-[(1,3-benzodioxol-5-ylsulfonyl)(isobutyl)amino]-2-hydroxy-1-{4-[(5-nitro-2-pyridinyl)oxy]benzyl}propylcarbamate]	8.00 to 9.00	8.00 to 9.00	8.00 to 9.00
CC(C)CN(C[C@@H](O)[C@H](Cc1ccc(Oc2c(C(=O)O)cc([N+](=O)[O-])cc2[N+](=O)[O-])cc1)NC(=O)O[C@H]1CO[C@H]2OCC[C@H]21)S(=O)(=O)c1ccc2c(c1)OCO2 [Compound 334, 2-(4-{(2S,3R)-2-({[(3R,3aS,6aR)-hexahydrofuro[2,3-b]furan-3-yloxy]carbonyl}amino)-4-[(1,3-benzodioxol-5-ylsulfonyl)(isobutyl)amino]-3-hydroxybutyl}phenoxy)-3,5-dinitrobenzoic Acid]	8.00 to 9.00	8.00 to 9.00	8.00 to 9.00
CC(C)CN(C[C@@H](O)[C@H](Cc1ccc(Oc2ccc(C#N)cn2)cc1)NC(=O)O[C@H]1CO[C@H]2OCC[C@H]21)S(=O)(=O)c1ccc2c(c1)OCO2 [Compound 335, (3R,3aS,6aR)-hexahydrofuro[2,3-b]furan-3-yl (1S,2R)-3-[(1,3-benzodioxol-5-ylsulfonyl)(isobutyl)amino]-1-{4-[(S-cyano-2-pyridinyl)oxy]benzyl}-2-hydroxypropylcarbamate]	8.00 to 9.00	8.00 to 9.00	8.00 to 9.00
CC(C)CN(C[C@@H](O)[C@H](Cc1ccc(Oc2ccc([N+](=O)[O-])cc2[N+](=O)[O-])cc1)NC(=O)O[C@H]1CO[C@H]2OCC[C@H]21)S(=O)(=O)c1ccc2c(c1)OCO2 [Compound 336, (3R,3aS,6aR)-hexahydrofuro[2,3-b]furan-3-yl (1S,2R)-3-[(1,3-benzodioxol-5-ylsulfonyl)(isobutyl)amino]-1-[4-(2,4-dinitrophenoxy)benzyl]-2-hydroxypropylcarbamate]	8.00 to 9.00	8.00 to 9.00	8.00 to 9.00
